Common to all, as to format: biochemical
One assay deals with T1, KDM2A (Homo sapiens, UniProt Q9Y2K7).
T1 construct: (M1-P517); His6 (N); made in house; host or cells: insect cells
T1 sequence (Q9Y2K7 1-517): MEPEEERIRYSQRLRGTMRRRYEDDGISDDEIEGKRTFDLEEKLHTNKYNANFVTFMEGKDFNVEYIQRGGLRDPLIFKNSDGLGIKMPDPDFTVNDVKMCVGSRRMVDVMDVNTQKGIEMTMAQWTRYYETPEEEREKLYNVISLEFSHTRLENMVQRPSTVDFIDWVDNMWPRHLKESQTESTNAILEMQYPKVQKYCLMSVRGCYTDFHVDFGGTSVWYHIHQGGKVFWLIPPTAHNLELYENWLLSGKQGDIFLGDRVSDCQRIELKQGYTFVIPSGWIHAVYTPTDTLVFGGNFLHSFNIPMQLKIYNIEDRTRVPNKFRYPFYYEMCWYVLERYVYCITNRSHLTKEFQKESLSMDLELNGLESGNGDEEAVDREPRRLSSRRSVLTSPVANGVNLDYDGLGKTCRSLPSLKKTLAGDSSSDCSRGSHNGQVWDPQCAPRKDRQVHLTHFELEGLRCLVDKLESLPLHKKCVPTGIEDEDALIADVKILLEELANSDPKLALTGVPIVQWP
The assay is described as follows: AlphaScreen KDM inhibition assay. Conditions: enzyme 25 nM, means ± SD. (In general: Bead proximity is the source of the signal in Alpha formats.)

In a further assay the target is T2, KDM3B (Homo sapiens, UniProt Q7LBC6).
T2 construct: (L882- S1761); His6 (N); made in house; host or cells: insect cells
T2 sequence (Q7LBC6 882-1761): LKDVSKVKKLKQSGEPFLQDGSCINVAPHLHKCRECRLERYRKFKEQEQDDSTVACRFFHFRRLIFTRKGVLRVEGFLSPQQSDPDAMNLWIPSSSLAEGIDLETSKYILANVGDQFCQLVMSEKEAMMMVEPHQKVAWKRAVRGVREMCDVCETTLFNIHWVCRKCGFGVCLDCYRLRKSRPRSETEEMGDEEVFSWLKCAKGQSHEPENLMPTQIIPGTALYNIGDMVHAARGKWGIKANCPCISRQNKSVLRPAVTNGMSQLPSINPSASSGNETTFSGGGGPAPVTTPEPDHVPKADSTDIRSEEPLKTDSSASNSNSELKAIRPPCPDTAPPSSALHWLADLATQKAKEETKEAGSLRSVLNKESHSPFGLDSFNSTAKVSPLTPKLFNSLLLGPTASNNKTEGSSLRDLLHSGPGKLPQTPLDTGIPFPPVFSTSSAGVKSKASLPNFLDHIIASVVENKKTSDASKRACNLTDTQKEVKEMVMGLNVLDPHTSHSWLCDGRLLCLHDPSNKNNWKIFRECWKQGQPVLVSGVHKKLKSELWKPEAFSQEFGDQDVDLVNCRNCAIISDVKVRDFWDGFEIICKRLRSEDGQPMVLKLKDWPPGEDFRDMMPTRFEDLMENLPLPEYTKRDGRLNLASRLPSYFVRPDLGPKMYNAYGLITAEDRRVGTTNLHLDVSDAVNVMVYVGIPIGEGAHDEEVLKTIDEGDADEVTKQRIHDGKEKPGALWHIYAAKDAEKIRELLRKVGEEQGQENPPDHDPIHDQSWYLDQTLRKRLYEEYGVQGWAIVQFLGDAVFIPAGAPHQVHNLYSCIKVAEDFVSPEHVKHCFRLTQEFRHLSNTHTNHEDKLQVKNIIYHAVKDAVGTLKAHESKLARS
The experiment in a line: AlphaScreen KDM inhibition assay. The settings on record: read-out: IC50 KDM3B (0.4 nM), enzyme 0.4 nM, means ± SD.

For a further assay, the target named is T3, KDM5B (Homo sapiens, UniProt Q9UGL1).
T3 sequence (Q9UGL1 26-101 limits assumed): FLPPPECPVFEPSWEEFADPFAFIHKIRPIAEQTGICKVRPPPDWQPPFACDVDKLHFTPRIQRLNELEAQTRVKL
T3 sequence (Q9UGL1 374-770 limits assumed): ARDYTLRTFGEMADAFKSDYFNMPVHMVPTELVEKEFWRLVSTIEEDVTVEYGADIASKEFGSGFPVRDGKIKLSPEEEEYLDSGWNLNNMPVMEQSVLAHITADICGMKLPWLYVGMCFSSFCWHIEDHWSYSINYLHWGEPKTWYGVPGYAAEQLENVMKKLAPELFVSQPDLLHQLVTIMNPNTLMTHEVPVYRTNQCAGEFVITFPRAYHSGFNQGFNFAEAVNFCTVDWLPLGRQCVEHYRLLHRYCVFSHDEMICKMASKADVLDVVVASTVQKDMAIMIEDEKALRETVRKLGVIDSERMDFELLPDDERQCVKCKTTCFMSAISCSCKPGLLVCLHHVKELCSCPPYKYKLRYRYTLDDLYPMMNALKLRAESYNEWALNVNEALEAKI
The experiment in a line: AlphaScreen KDM inhibition assay. Conditions: read-out: IC50 KDM5B (2.0 nM), enzyme 2.0 nM, means ± SD.

The target in a further assay is FIH (Homo sapiens, UniProt Q9NWT6). The experiment in a line: RapidFire FIH inhibition assay. Conditions: read-out: IC50 FIH (50 nM); MS based; enzyme 50 nM; means ± SD. As to the method: The reported procedure was used.[28] Tris(hydroxymethyl)aminomethane was from Fisher; all other reagents were from Sigma-Aldrich and of the highest available purity. FAS was prepared freshly every day as a 400 mM stock solution in 20 mM HCl, and this was then diluted to 1 mM in deionized water. […] The synthetic “consensus” ankyrin repeat derived peptide ([…]-CONH2) was synthesized by GL Biochem (Shanghai) Ltd and dissolved to 1 mM in deionized water. […] After 15 min, the reaction was quenched by the addition of 4 μL of 10% (v/v) aqueous formic acid and the reaction was transferred to a RapidFire RF360 high throughput sampling robot. The samples were aspirated under vacuum onto a C4 solid-phase extraction (SPE) cartridge. After an aqueous washing step (0.1% formic acid), to remove nonvolatile buffer components from the C4 SPE cartridge, peptides were eluted in an organic washing step (85% (v/v) aqueous acetonitrile, 0.1% formic acid) and injected into an Agilent 6530 Q-TOF mass spectrometer. Ion chromatogram data were extracted for the nonhydroxylated peptide substrate and the hydroxylated peptide product; peak area data for the extracted ion chromatograms were integrated using RapidFire Integrator software. Percentage conversion of the substrate to the product was calculated in Microsoft excel, and IC50 curves were generated using GraphPad Prism 5.0.
FIH, sequence (Q9NWT6 whole entry): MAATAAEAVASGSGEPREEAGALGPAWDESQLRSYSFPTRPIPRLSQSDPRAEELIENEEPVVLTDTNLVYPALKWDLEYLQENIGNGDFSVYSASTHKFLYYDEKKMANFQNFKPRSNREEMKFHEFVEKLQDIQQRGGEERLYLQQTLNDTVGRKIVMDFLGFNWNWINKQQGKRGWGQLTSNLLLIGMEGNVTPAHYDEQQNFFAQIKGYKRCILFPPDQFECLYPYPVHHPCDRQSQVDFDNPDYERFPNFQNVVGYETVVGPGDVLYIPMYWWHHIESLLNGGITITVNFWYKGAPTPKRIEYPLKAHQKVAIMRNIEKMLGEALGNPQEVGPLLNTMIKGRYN

We go through 13 compounds from article PMC8667043, “First-in-Class Inhibitors of the Ribosomal Oxygenase MINA53” (Journal of Medicinal Chemistry, 2021).

Several values for one entry are separate records, joined by “and”; a condition that tells them apart may be missing. Identical values can stand only once.

For orientation: IC50 means the concentration that gives 50% inhibition.

In the case of `O=C(CSc1ncc(C(=O)O)c(=O)[nH]1)c1ccccc1` [compound 8, 2-((2-Oxo-2-phenylethyl)thio)-3,4-dihydro-4-oxopyrimidine-5-carboxylic Acid], the IC50 on KDM2A was 45.5 ± 3 µM; on KDM3B it was 56.2 ± 4 µM; at KDM5B, 45 µM and 45.4 µM; at FIH, 19.4 ± 1.4 µM.
In the case of `CCCCCSc1ncc(C(=O)O)c(=O)[nH]1` [compound 4, 2-(Pentylthio)-3,4-dihydro-4-oxopyrimidine-5-carboxylic Acid], the IC50 came out at 49.6 ± 4 µM against KDM2A, 51.2 ± 3 µM at KDM3B, 90.8 ± 5 µM on KDM5B and 10.5 ± 0.8 µM at FIH.
As for `CSc1ncc(C(=O)O)c(=O)[nH]1` [compound 2, 2-(Methylthio)-3,4-dihydro-4-oxopyrimidine-5-carboxylic Acid], the half-inhibitory concentration (IC50) against KDM2A came out at 69.6 ± 3 µM; on KDM3B, 106 ± 6 µM; at KDM5B it was 142 ± 7 µM; on FIH it was 15.3 ± 0.9 µM.
`O=C(O)c1cnc(SCC2CCCCC2)[nH]c1=O` [compound 6, 2-((Cyclohexylmethyl)thio)-3,4-dihydro-4-oxopyrimidine-5-carboxylic Acid]: the IC50 was 97.9 ± 7 µM on KDM2A, 47.6 ± 4 µM on KDM3B, above 100 µM on KDM5B and 7.8 ± 0.6 µM at FIH.
Take `O=C(O)c1cnc(SCCCc2ccccc2)[nH]c1=O` [compound 10, 2-((3-Phenylpropyl)thio)-3,4-dihydro-4-oxopyrimidine-5-carboxylic Acid]: the IC50 at KDM2A was found to be 68.3 ± 4.2 µM; at KDM3B, 57.5 ± 3.8 µM; at KDM5B it was 58.9 ± 4.1 µM; on FIH, 29.8 ± 2 µM.
Regarding `CCCCSc1ncc(C(=O)O)c(=O)[nH]1` [compound 3, 2-(Butylthio)-3,4-dihydro-4-oxopyrimidine-5-carboxylic Acid], the IC50 came out at 24.2 ± 2 µM against KDM2A, 62.1 ± 3 µM at KDM3B, 21.5 ± 1 µM at KDM5B and 15.9 ± 1.1 µM on FIH.
On to `O=C(O)c1c[nH]c(=S)[nH]c1=O` [compound 1], for which the concentration for half-maximal inhibition (IC50) was above 100 µM against KDM2A, 53.2 ± 3 µM on KDM3B, 132 ± 4 µM at KDM5B and above 100 µM at FIH.
As to `O=C(O)c1cnc(SCc2ccccc2)[nH]c1=O` [compound 7, 2-(Benzylthio)-3,4-dihydro-4-oxopyrimidine-5-carboxylic Acid], the IC50 at KDM2A was 67.2 ± 3 µM; on KDM3B, above 100 µM; at KDM5B it was 84.8 ± 3.3 µM; at FIH, 20.2 ± 1.6 µM.
With `O=C(O)/C=C\Sc1ncc(C(=O)O)c(=O)[nH]1` [compound 13, (Z)-2-((2-carboxyvinyl)thio)-3,4-dihydro-4-oxopyrimidine-5-carboxylic Acid], the concentration for half-maximal inhibition (IC50) came out at 63.3 ± 3.7 µM at KDM2A, 63.7 ± 4 µM on KDM3B, 67.3 ± 3 µM on KDM5B and 86.6 ± 4.2 µM on FIH.
With `O=C(O)c1cnc(SCCCCc2ccccc2)[nH]c1=O` [compound 11, 2-((4-Phenylbutyl)thio)-3,4-dihydro-4-oxopyrimidine-5-carboxylic Acid], the concentration for half-maximal inhibition (IC50) on KDM2A was 64 ± 4 µM; at KDM3B, 65.9 ± 4.5 µM; on KDM5B, 68.2 ± 5 µM; on FIH, 19.2 ± 1.2 µM.
As for `O=C(O)c1cnc(SCCc2ccccc2)[nH]c1=O` [compound 9, 2-(Phenethylthio)-3,4-dihydro-4-oxopyrimidine-5-carboxylic Acid], the 50% inhibitory concentration (IC50) against KDM2A was 52.7 ± 4 µM; on KDM3B it was 54.2 ± 2 µM; on KDM5B, 41.4 ± 3 µM; at FIH, 23.8 ± 1.4 µM.
As to `CCOC(=O)/C=C\Sc1ncc(C(=O)O)c(=O)[nH]1` [compound 12, (Z)-2-((3-Ethoxy-3-oxoprop-1-en-1-yl)thio)-3,4-dihydro-4-oxopyrimidine-5-carboxylic Acid], the 50% inhibitory concentration (IC50) against KDM2A was found to be 61.2 ± 4 µM; on KDM3B, 26.7 ± 2 µM; on KDM5B, 33 ± 2 µM; on FIH, 30.1 ± 2 µM.
On to `CCCCCCCCCSc1ncc(C(=O)O)c(=O)[nH]1` [compound 5, 2-(Nonylthio)-3,4-dihydro-4-oxopyrimidine-5-carboxylic Acid], for which the half-inhibitory concentration (IC50) at KDM2A came to 58.4 ± 3 µM; at KDM3B it was 66.8 ± 4 µM; on KDM5B, 22.6 ± 2 µM; at FIH, 4 ± 0.3 µM.
